# Data taken from patent publication US10611740B2, “Aryl dihydro-2H-benzo[b][1,4]oxazine sulfonamide and related compounds for use as agonists of RORγ and the treatment of disease” (Lycera Corporation, priority 2015, dated 2020).
# What was measured:
# RORγ-LBD = molecular target: T1, RORγ-LBD (Homo sapiens, UniProt P51449); assay: RORγ-Ligand Binding Domain (LBD) TR-FRET Assay; assay type: biochemical;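 for TR-FRET Assay Max Response: 665/615 nm ratio relative to signal without ursolic acid or compound set at 100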
# T1 construct: made in house; host or cells: SF9 cells (baculovirus)
# T1 sequence (P51449 269-508 limits assumed): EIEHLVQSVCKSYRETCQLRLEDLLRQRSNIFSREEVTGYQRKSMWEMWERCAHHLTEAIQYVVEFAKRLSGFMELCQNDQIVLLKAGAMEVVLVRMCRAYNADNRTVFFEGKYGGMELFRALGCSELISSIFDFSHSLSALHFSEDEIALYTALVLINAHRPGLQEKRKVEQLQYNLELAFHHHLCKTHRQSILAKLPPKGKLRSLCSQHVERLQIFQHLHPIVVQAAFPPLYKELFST
# Method in brief: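 His-tagged RORγ-LBD from SF9 baculovirus lysate, ~3 nM final, in 50 mM Tris pH 7.0, 50 mM KCl, 1 mM EDTA, 0.1 mM DTT, 0.01% BSA. Biotinylated SRC1 LXXLL peptide at 200 nM final with 2 μM ursolic acid; TR-FRET read-out, 1% DMSO final.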
# Gal4-RORγ-LBD = molecular target: T2, Gal4-RORγ-LBD (Homo sapiens, UniProt P51449); assay: Gal4-RORγ Luciferase Reporter Assay in HEK-293T Cells; assay type: cell-based; conditions: HEK-293 cells
# T2 construct: expressed in transfected cells; host or cells: HEK-293 cells (pcDNA3.1neo plasmid)
# T2 sequence (P51449 269-508 limits assumed): T1 sequence (P51449 269-508 limits assumed)
# Method in brief: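 HEK-293 cells were transiently co-transfected with Gal4-RORγ-LBD and pGL4.31 Gal4-luciferase, with ursolic acid added at 2 μM final. Compounds were incubated overnight at 37° C. in 0.2% DMSO and luminescence read with One-Glo. Max Response is the upper plateau of a 4-parameter logistic fit, with signal lacking ursolic acid or compound set to 100.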
# [1] = luciferase reporter, with 2 μM ursolic acid
structure (smiles),measurement,setting,value
"O=c1[nH]c(OCCC[C@H]2CN(S(=O)(=O)c3cccc(C(F)(F)F)c3)c3cc(-c4cccc(C(F)(F)F)n4)ccc3O2)no1 [Compound 36C, (S)-3-(3-(4-((3-(trifluoro-methyl)phenyl)sulfonyl)-6-(6-(trifluoromethyl)-pyridin-2-yl)-3,4-dihydro-2H-benzo[b][1,4]oxazin-2-yl)propoxy)-1,2,4-oxadiazol-5(4H)-one]",EC50,RORγ-LBD,< 0.5 µM
same,TR-FRET Assay Max Response,RORγ-LBD,**** (The symbol “****” indicates a value greater than 200)
same,EC50,Gal4-RORγ-LBD; [1],< 0.5 µM
same,Gal4-RORγ Assay Max Response,Gal4-RORγ-LBD; [1],** (The symbol “**” indicates a value in the range of greater than 90 to 150)
"O=C(O)[C@@H](O)CC[C@H]1CN(S(=O)(=O)c2cccc(C(F)(F)F)c2)c2cc(-c3cc(F)ccc3F)ccc2O1 [Compound 37, (S)-4-((S)-6-(2,5-difluorophenyl)-4-((3-(trifluoromethyl)phenyl)sulfonyl)-3,4-dihydro-2H-benzo[b][1,4]oxazin-2-yl)-2-hydroxybutanoic acid]",EC50,RORγ-LBD,< 0.5 µM
same,TR-FRET Assay Max Response,RORγ-LBD,*** (The symbol “***” indicates a value in the range of greater than 150 to 200)
same,EC50,Gal4-RORγ-LBD; [1],0.5 to 5 µM
same,Gal4-RORγ Assay Max Response,Gal4-RORγ-LBD; [1],*** (The symbol “***” indicates a value in the range of greater than 150 to 200)
"O=C(O)[C@H](O)CC[C@H]1CN(S(=O)(=O)c2cccc(C(F)(F)F)c2)c2cc(-c3cc(F)ccc3F)ccc2O1 [Compound 38, (R)-4-((S)-6-(2,5-difluorophenyl)-4-((3-(trifluoromethyl)phenyl)sulfonyl)-3,4-dihydro-2H-benzo[b][1,4]oxazin-2-yl)-2-hydroxybutanoic acid]",EC50,RORγ-LBD,< 0.5 µM
same,TR-FRET Assay Max Response,RORγ-LBD,*** (The symbol “***” indicates a value in the range of greater than 150 to 200)
same,EC50,Gal4-RORγ-LBD; [1],< 0.5 µM
same,Gal4-RORγ Assay Max Response,Gal4-RORγ-LBD; [1],** (The symbol “**” indicates a value in the range of greater than 90 to 150)
"C[C@](O)(CC[C@H]1CN(S(=O)(=O)c2cccc(C(F)(F)F)c2)c2cc(-c3cc(F)ccc3F)ccc2O1)C(=O)O [Compound 39, (S)-4-((S)-6-(2,5-difluorophenyl)-4-((3-(trifluoromethyl)phenyl)sulfonyl)-3,4-dihydro-2H-benzo[b][1,4]oxazin-2-yl)-2-hydroxy-2-methylbutanoic acid]",EC50,RORγ-LBD,< 0.5 µM
same,TR-FRET Assay Max Response,RORγ-LBD,**** (The symbol “****” indicates a value greater than 200)
same,EC50,Gal4-RORγ-LBD; [1],< 0.5 µM
same,Gal4-RORγ Assay Max Response,Gal4-RORγ-LBD; [1],** (The symbol “**” indicates a value in the range of greater than 90 to 150)
"C[C@@](O)(CC[C@H]1CN(S(=O)(=O)c2cccc(C(F)(F)F)c2)c2cc(-c3cc(F)ccc3F)ccc2O1)C(=O)O [Compound 40, (R)-4-((S)-6-(2,5-difluorophenyl)-4-((3-(trifluoromethyl)phenyl)sulfonyl)-3,4-dihydro-2H-benzo[b][1,4]oxazin-2-yl)-2-hydroxy-2-methylbutanoic acid]",EC50,RORγ-LBD,< 0.5 µM
same,TR-FRET Assay Max Response,RORγ-LBD,**** (The symbol “****” indicates a value greater than 200)
same,EC50,Gal4-RORγ-LBD; [1],0.5 to 5 µM
same,Gal4-RORγ Assay Max Response,Gal4-RORγ-LBD; [1],** (The symbol “**” indicates a value in the range of greater than 90 to 150)
"O=S(=O)(c1cccc(C(F)(F)F)c1)N1C[C@H]([C@H](O)CO)Oc2ccc(-c3cc(F)ccc3F)cc21 [Compound 41, (R)-1-((R)-6-(2,5-difluorophenyl)-4-((3-(trifluoromethyl)phenyl)sulfonyl)-3,4-dihydro-2H-benzo[b][1,4]oxazin-2-yl)ethane-1,2-diol]",EC50,RORγ-LBD,< 0.5 µM
same,TR-FRET Assay Max Response,RORγ-LBD,**** (The symbol “****” indicates a value greater than 200)
same,EC50,Gal4-RORγ-LBD; [1],< 0.5 µM
same,Gal4-RORγ Assay Max Response,Gal4-RORγ-LBD; [1],* (The symbol “*” indicates a value in the range of 25 to 90)
"CS(=O)(=O)NC(=O)CC[C@H]1CN(S(=O)(=O)c2cccc(C(F)(F)F)c2)c2cc(-c3cc(F)ccc3F)ccc2O1 [Compound 42, (S)-3-(6-(2,5-difluorophenyl)-4-((3-(trifluoromethyl)phenyl)sulfonyl)-3,4-dihydro-2H-benzo[b][1,4]oxazin-2-yl)-N-(methylsulfonyl)propanamide]",EC50,RORγ-LBD,< 0.5 µM
same,TR-FRET Assay Max Response,RORγ-LBD,**** (The symbol “****” indicates a value greater than 200)
same,EC50,Gal4-RORγ-LBD; [1],< 0.5 µM
same,Gal4-RORγ Assay Max Response,Gal4-RORγ-LBD; [1],** (The symbol “**” indicates a value in the range of greater than 90 to 150)
"O=C(CC[C@H]1CN(S(=O)(=O)c2cccc(C(F)(F)F)c2)c2cc(-c3ccc(F)cc3F)ccc2O1)NS(=O)(=O)c1ccccc1 [Compound 43A, (S)-3-(6-(2,4-difluorophenyl)-4-((3-(trifluoromethyl)phenyl)-sulfonyl)-3,4-dihydro-2H-benzo[b][1,4]oxazin-2-yl)-N-(phenylsulfonyl)propanamide]",EC50,RORγ-LBD,< 0.5 µM
same,TR-FRET Assay Max Response,RORγ-LBD,**** (The symbol “****” indicates a value greater than 200)
same,EC50,Gal4-RORγ-LBD; [1],0.5 to 5 µM
same,Gal4-RORγ Assay Max Response,Gal4-RORγ-LBD; [1],*** (The symbol “***” indicates a value in the range of greater than 150 to 200)
"O=C(CC[C@H]1CN(S(=O)(=O)c2cccc(C(F)(F)F)c2)c2cc(-c3ccc(F)cc3F)ccc2O1)NS(=O)(=O)C1CC1 [Compound 43B, (S)-N-(cyclopropylsulfonyl)-3-(6-(2,4-difluorophenyl)-4-((3-(trifluoromethyl)phenyl)-sulfonyl)-3,4-dihydro-2H-benzo[b][1,4]oxazin-2-yl)propanamide]",EC50,RORγ-LBD,< 0.5 µM
same,TR-FRET Assay Max Response,RORγ-LBD,**** (The symbol “****” indicates a value greater than 200)
same,EC50,Gal4-RORγ-LBD; [1],0.5 to 5 µM
same,Gal4-RORγ Assay Max Response,Gal4-RORγ-LBD; [1],** (The symbol “**” indicates a value in the range of greater than 90 to 150)
"CNS(=O)(=O)NC[C@H]1CN(S(=O)(=O)c2cccc(C(F)(F)F)c2)c2cc(-c3cc(F)ccc3F)ccc2O1 [Compound 44, ([[(2S)-6-(2,5-difluorophenyl)-4-[[3-(trifluoromethyl)benzene]sulfonyl]-3,4-dihydro-2H-1,4-benzoxazin-2-yl]methyl]sulfamoyl)(methyl)amine]",EC50,RORγ-LBD,< 0.5 µM
same,TR-FRET Assay Max Response,RORγ-LBD,**** (The symbol “****” indicates a value greater than 200)
same,EC50,Gal4-RORγ-LBD; [1],< 0.5 µM
same,Gal4-RORγ Assay Max Response,Gal4-RORγ-LBD; [1],** (The symbol “**” indicates a value in the range of greater than 90 to 150)
"CN(C)S(=O)(=O)NC[C@H]1CN(S(=O)(=O)c2cccc(C(F)(F)F)c2)c2cc(-c3cc(F)ccc3F)ccc2O1 [Compound 45A, ([[(2S)-6-(2,5-difluorophenyl)-4-[[3-(trifluoromethyl)-benzene]-sulfonyl]-3,4-dihydro-2H-1,4-benzoxazin-2-yl]methyl]sulfamoyl)-(dimethyl)amine]",EC50,RORγ-LBD,< 0.5 µM
same,TR-FRET Assay Max Response,RORγ-LBD,**** (The symbol “****” indicates a value greater than 200)
same,EC50,Gal4-RORγ-LBD; [1],< 0.5 µM
same,Gal4-RORγ Assay Max Response,Gal4-RORγ-LBD; [1],** (The symbol “**” indicates a value in the range of greater than 90 to 150)
"COc1cc(S(=O)(=O)N2C[C@H](CNS(=O)(=O)N(C)C)Oc3ccc(-c4cc(F)ccc4F)cc32)ccc1F [Compound 45C, ([[(2S)-6-(2,5-difluorophenyl)-4-[[4-fluoro-3-methoxy-benzene]-sulfonyl]-3,4-dihydro-2H-1,4-benzoxazin-2-yl]methyl]sulfamoyl)-(dimethyl)amine]",EC50,RORγ-LBD,< 0.5 µM
same,TR-FRET Assay Max Response,RORγ-LBD,*** (The symbol “***” indicates a value in the range of greater than 150 to 200)
same,EC50,Gal4-RORγ-LBD; [1],< 0.5 µM
same,Gal4-RORγ Assay Max Response,Gal4-RORγ-LBD; [1],* (The symbol “*” indicates a value in the range of 25 to 90)
"COc1cc(S(=O)(=O)N2C[C@H](CNS(=O)(=O)N(C)CCO)Oc3ccc(-c4cc(F)ccc4F)cc32)ccc1F [Compound 45D, ([[(2S)-6-(2,5-difluorophenyl)-4-[[4-fluoro-3-methoxy-benzene]-sulfonyl]-3,4-dihydro-2H-1,4-benzoxazin-2-yl]methyl]sulfamoyl)-(N-methyl-N-2-hydroxyethyl)-amine]",EC50,RORγ-LBD,< 0.5 µM
same,TR-FRET Assay Max Response,RORγ-LBD,*** (The symbol “***” indicates a value in the range of greater than 150 to 200)
same,EC50,Gal4-RORγ-LBD; 2 μM ursolic acid,< 0.5 µM
same,Gal4-RORγ Assay Max Response,Gal4-RORγ-LBD; 2 μM ursolic acid,* (The symbol “*” indicates a value in the range of 25 to 90)
"COc1cc(S(=O)(=O)N2C[C@H](CNS(=O)(=O)N3CC[C@H](O)C3)Oc3ccc(-c4cc(F)ccc4F)cc32)ccc1F [Compound 45E, (S)-N-(((S)-6-(2,5-difluoro-phenyl)-4-((4-fluoro-3-methoxyphenyl)sulfonyl)-3,4-dihydro-2H-benzo[b][1,4]oxazin-2-yl)methyl)-3-hydroxy-pyrrolidine-1-sulfonamide]",EC50,RORγ-LBD,< 0.5 µM
same,TR-FRET Assay Max Response,RORγ-LBD,*** (The symbol “***” indicates a value in the range of greater than 150 to 200)
same,EC50,Gal4-RORγ-LBD; 2 μM ursolic acid,< 0.5 µM
same,Gal4-RORγ Assay Max Response,Gal4-RORγ-LBD; 2 μM ursolic acid,** (The symbol “**” indicates a value in the range of greater than 90 to 150)
"Cc1c(F)cc(-c2ccc3c(c2)N(S(=O)(=O)c2cccc(C(F)(F)F)c2)C[C@H](CC(C)C(=O)O)O3)c(Cl)c1F (stereo partly drawn) [Compound 46A, 3-((S)-6-(2-chloro-3,5-difluoro-4-methylphenyl)-4-((3-(trifluoro-methyl)phenyl)sulfonyl)-3,4-dihydro-2H-benzo[b][1,4]oxazin-2-yl)-2-methylpropanoic acid]",EC50,RORγ-LBD,< 0.5 µM
same,TR-FRET Assay Max Response,RORγ-LBD,*** (The symbol “***” indicates a value in the range of greater than 150 to 200)
same,EC50,Gal4-RORγ-LBD; [1],0.5 to 5 µM
same,Gal4-RORγ Assay Max Response,Gal4-RORγ-LBD; [1],** (The symbol “**” indicates a value in the range of greater than 90 to 150)
